Results from patent US8741910B2, “Soluble guanylate cyclase activators” (Merck Sharp & Dohme Corp., priority 2008, dated 2014).

molecular target: T1, sGC α1/β1 heterodimer (Homo sapiens, UniProt Q02108+Q02153); experiment: Cell-Based sGC Functional Assay (CASA Assay); settings: CHO-K1/sGC cells, intracellular cGMP by HTRF, 1 hr at 37 °C
T1 construct: expressed in transfected cells; host or cells: CHO-K1 (clone #7, CHO-K1/sGC)
T1 sequence (Q02108 1-690): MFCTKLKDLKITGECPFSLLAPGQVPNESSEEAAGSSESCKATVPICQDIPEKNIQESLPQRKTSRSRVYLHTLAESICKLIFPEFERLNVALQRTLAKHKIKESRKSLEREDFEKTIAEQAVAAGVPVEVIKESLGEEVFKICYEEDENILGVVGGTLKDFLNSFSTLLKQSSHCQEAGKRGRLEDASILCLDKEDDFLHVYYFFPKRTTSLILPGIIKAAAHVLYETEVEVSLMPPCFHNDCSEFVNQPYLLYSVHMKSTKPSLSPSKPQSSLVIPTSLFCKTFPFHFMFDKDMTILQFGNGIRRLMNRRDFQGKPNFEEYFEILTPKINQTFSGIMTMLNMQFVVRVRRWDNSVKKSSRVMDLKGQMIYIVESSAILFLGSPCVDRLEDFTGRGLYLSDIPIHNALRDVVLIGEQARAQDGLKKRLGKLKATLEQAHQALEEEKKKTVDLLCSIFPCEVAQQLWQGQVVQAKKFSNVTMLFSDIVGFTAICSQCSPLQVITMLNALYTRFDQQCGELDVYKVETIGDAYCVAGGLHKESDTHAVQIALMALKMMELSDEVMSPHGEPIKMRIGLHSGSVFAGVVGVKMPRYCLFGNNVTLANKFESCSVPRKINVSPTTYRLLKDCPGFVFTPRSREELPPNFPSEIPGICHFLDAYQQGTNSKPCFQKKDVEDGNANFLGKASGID
T1 sequence (Q02153 1-619): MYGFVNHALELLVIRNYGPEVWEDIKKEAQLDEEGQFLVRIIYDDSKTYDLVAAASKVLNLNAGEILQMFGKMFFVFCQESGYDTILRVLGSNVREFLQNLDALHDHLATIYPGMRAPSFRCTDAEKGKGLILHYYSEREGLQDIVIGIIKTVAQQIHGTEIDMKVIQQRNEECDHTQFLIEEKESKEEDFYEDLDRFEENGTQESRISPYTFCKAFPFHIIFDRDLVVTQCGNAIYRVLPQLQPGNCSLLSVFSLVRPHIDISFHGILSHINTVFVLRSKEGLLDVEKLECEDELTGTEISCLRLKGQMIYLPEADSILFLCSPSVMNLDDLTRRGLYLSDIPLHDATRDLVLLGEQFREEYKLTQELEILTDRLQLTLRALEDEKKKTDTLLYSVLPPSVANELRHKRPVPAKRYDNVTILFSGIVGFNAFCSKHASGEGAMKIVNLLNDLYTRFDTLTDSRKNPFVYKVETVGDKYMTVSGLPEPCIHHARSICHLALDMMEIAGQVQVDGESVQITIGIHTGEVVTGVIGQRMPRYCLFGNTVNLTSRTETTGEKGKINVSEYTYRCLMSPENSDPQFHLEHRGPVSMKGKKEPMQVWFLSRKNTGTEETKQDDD
Text: Increases in cGMP levels affect several physiological processes including vasorelaxation through multiple downstream pathways. […] Heme-dependent activators (HDAs) preferentially activate sGC containing a ferrous heme group. To determine the effect of sGC activators on enzyme activity, the CASA assay was developed to monitor the generation of cGMP in a cell line that stably expresses the heterodimeric sGC protein.
A CHO-K1 cell line stably expressing the sGC α1/β1 heterodimer was generated using a standard transfection protocol. CHO-K1 cells were transfected with plasmids pIREShyghsGCα1 and pIRESneo-hsGCβ1 simultaneously using FUGENE reagent. Clones that stably express both subunits were selected with hygromycin and neomycin for ˜2 weeks. Clone #7 was chosen for the assay and was designated CHO-K1/sGC. CHO-K1/sGC cells were maintained in F-K12 medium containing 10% heat-inactivated Fetal Bovine Serum (FBS), 100 μg/mL penicillin/streptomycin, 0.5 mg/mL hygromycin and 0.25 mg/mL G418. […] IBMX (3-isobutyl-1-methylxanthin, 0.5 mM) was added to inhibit degradation of cGMP. Compounds were diluted from DMSO stock solutions and added to the assay at a final DMSO concentration of 1%. […] At the end of the incubation period, the reaction was terminated and the cells were lysed. The level of intracellular cGMP was determined using an HTRF-based assay kit (CisBio, 62GM2PEC), which detects the displacement of a fluorescence labeled cGMP from its specific antibody.

**Q.** `CC1(C)C(=O)Nc2nc(-c3nc(Cc4c(F)ccc(F)c4F)n4cc(Cl)ccc34)nc(N)c21` [Example 59, 4-amino-2-[6-chloro-3-(2,3,6-trifluorobenzyl)imidazo[1,5-a]pyridin-1-yl]-5,5-dimethyl-5,7-dihydro-6H-pyrrolo[2,3-d]pyrimidin-6-one] was tested. Which EC50 did it give?
**A.** 0.024 µM

**Q.** With `CC1(C)C(=O)Nc2nc(-c3nc(Cc4c(F)ccc(F)c4F)n4cc(F)ccc34)nc(N)c21` [Example 60, 4-amino-2-[6-fluoro-3-(2,3,6-trifluorobenzyl)imidazo[1,5-a]pyridin-1-yl]-5,5-dimethyl-5,7-dihydro-6H-pyrrolo[2,3-d]pyrimidin-6-one] as the compound, how does the EC50 read?
**A.** 0.031 µM

**Q.** `CC1(C)C(=O)Nc2nc(-c3nn(CCC(F)(F)C(F)(F)F)c4cc(Cl)ccc34)nc(N)c21` [Example 111, 4-amino-2-[6-chloro-1-(3,3,4,4,4-pentafluorobutyl)-1H-indazol-3-yl]-5,5-dimethyl-5,7-dihydro-6H-pyrrolo[2,3-d]pyrimidin-6-one] was tested. Which EC50 did it give?
**A.** 0.083 µM
